From US12083123B2, “Method for the detection of drug-induced organ or tissue injury in IMPDH inhibitor treated patients” (University of Cincinnati, priority 2020, dated 2024)

Experiments:
[1] = tested on: mouse liver hepatocytes; experiment: Mouse study: liver histology and EM image analysis of MMF-treated vs untreated mice; type: in vivo
Description: The body weights of the mice were recoded every day. […] The rest of the mice were sacrificed on day 14 and a necropsy was performed on the surviving mice.
H&E and trichrome staining was performed on each liver sections from 3 MMF treated and 5 untreated mice at a CLIA-certified laboratory at CHLA.
Ultrastructural analysis was performed as described for human liver biopsies on the mouse liver tissue from the MMF treated and untreated mice. The EM images were captured digitally at the same magnification (18,000×). Thirty hepatocytes per mouse liver are selected randomly and the numbers of the mitochondria and lipid droplets were counted per hepatocytes using the digital images. In addition, the greatest dimensions of randomly selected 50 mitochondria per hepatocytes from each mouse were measured using an image analysis software, Cellsens® (Olympus, Tokyo, Japan).
The numbers of the mitochondria and the lipid droplets and the sizes of the mitochondria of the hepatocytes from MMF treated and untreated mice were compared by repeated measures mixed model analysis, with […] as a random effect and group as fixed, at a 0.005 significance level, using Prism8 software (Graphpad Software, San Diego, CA, USA).

[2] = tested on: Kupffer cells; experiment: Human liver specimens from MMF-treated patients: macrophages in livers (Kupffer cells); type: in vivo
[3] = cited from earlier work
[4] = tested on: hepatic Kupffer cells; experiment: Mouse model treated with MMF by oral gavage: light microscopy of tissues, Kupffer cells and IMPDH2 expression; type: in vivo; settings: MMF 120 mg/kg daily for over two weeks by oral gavage
Description: To further study the potential changes caused by MMF treatment, an animal model (mouse) was used and treated with MMF 120 mg/kg daily for over two weeks by oral gavage. As a control, another group of mice was treated with the vehicle used for MMF. Among the issues investigated (e.g., liver, kidney, ovary, brain, white adipose and brown adipose tissues, pancreas, stomach, lung), a major change that is easily detected by light microscope (400× magnification) is pointed on hepatic Kupffer cells. […] In addition, IMPDH2 expression levels within the Kupffer cells were increased compared to MMF-untreated mouse liver.

[5] = tested on: transplanted liver; experiment: Transplant liver biopsies (histology, EM, LFTs) of liver transplant recipients treated with MMF; type: in vivo, human
Description: One biopsy from a patient (Case 4) was performed for surveillance purpose. Ultrastructural analysis included obtaining a small portion of the liver biopsies and post-fixing in osmium tetroxide and embedded in epoxy resin. Ultra-thin sections were stained with uranyl acetate/lead citrate. Detailed evaluation was made using Morgagni transmission electron microscope (EM, FEI, Hillsboro, OR). 2 H&E (hematoxylin and eosin) and 5 special (1 each for PAS, PASD, reticulin, iron and trichrome) stained slides were used per biopsy. ACR was diagnosed and scored using the Rejection Activity Index (RAI), which included: 1) portal inflammation (score 1-3), 2) bile duct damage (score 1-3), and 3) venous endothelial inflammation (score 1-3). Each score was added (RAI) and the degree of ACR was scored as follows: RAI=0-9; <3: borderline/indeterminate ACR, 3-4: mild ACR, 5-7: moderate ACR and >7: severe ACR. (Banff; 1997). Nonspecific hepatocellular injury is often referred to “reactive changes”. Histologic features of “reactive changes” include enlarged hepatocytes with hydropic changes (expanded, pale to clear cytoplasm) and coarse eosinophilic granules (e.g. mega-mitochondria), and nuclei with anisonucleosis and bi- and multi-nucleation, cholestasis, steatosis and necrosis. Necrosis can range from single cell necrosis (acidophil bodies) to rarely broad necrosis with collapsed lobules.

[6] = tested on: WT-PI5P4Kβ/Pip4K2b−/− cells; experiment: Lysosomal acidification in serum starved WT-PI5P4Kβ/Pip4K2b−/− cells; type: cell-based; settings: MPA treatment for 2 h
[7] = EM image analysis, MMF-treated for 14 days vs untreated group
[8] = the 11 patients with elevated LFTs
[9] = Case 1-3, liver transplant recipients treated with MMF

COc1c(C)c2c(c(O)c1C/C=C(\C)CCC(=O)OCCN1CCOCC1)C(=O)OC2 [MMF, mycophenolate mofetil]
degree of mitochondrial pleomorphism (size differences) in the hepatocytes [1, 7]: significantly increased
numbers of lipids (lipid droplets) in the hepatocytes [1, 7]: significantly increased
numbers of mitochondria in the hepatocytes [1, 7]: significantly increased
death during treatment ([1]; MMF treated group, 14 day treatment): Two mice in the MMF treated group died
liver histology (H&E) ([1]; MMF-treated for 14 days vs untreated mice): no recognizable differences
number and size of macrophages in livers (Kupffer cells) [2]: significant increase
patients with elevated LFTs ([3]; of 79 renal transplant recipients treated with MMF): 13.9%
abnormal LFTs after reduction or withdrawal of MMF ([3]; renal transplant recipients with elevated LFTs): normalized
ALT, median and range [3, 8]: 222.0 (51-508) U/L
AST, median and range [3, 8]: 83.0 (50-123) U/L
changes in the other tissues by standard light microscopic analysis ([4]; kidney, ovary, brain, adipose tissues, pancreas, stomach, lung): did not show any significant changes
Kupffer cell size and numbers ([4]; light microscope 400×, vs vehicle): enlarged (hyperplasia/activated) and increased in their numbers
IMPDH2 expression levels within the Kupffer cells ([4]; vs MMF-untreated mouse liver): increased
electron microscopy (EM) finding in transplant liver biopsies [5, 9]: mitochondrial pleomorphism and crystalloid inclusions
histology of transplant liver biopsies [5, 9]: only mild nonspecific hepatocellular injury
LFTs after stopping or reducing MMF ([5]; Case 1 and 2): improved

COc1c(C)c2c(c(O)c1C/C=C(\C)CCC(=O)O)C(=O)OC2 [MPA, mycophenolic acid]
lysosomal acidification [6]: suppressed lysosomal acidification
